Test results reported in patent US10870710B2, “Synthetic oligosaccharide subunits of the Psl exopolysaccharide of pseudomonas aeruginosa and uses thereof” (Medlmmune Limited, priority 2013, dated 2020).

System: anti-Psl mAb WapR-016 (class III)
Test: ELISA, class III mAb WapR-016 binding to oligosaccharide-BSA conjugates
Details: oligosaccharide-BSA conjugate coated on plate; mAb 5 μg/mL
Protocol: Microtiter plates were coated with tetrasaccharide (3)-BSA conjugate (3A), pentasaccharide (2)-BSA conjugate (3B), hexasaccharide (4)-BSA conjugate (3C), and decasaccharide (1)-BSA conjugate (3D) at the indicated carbohydrate concentrations. Anti-Psl mAbs class I (Cam-003, ●), class II (WapR-001, ▪), class III (WapR-016, ▴), and R347 (♦) (5 μg/mL) were tested for reactivity with each oligosaccharide component. The optical density (OD) values are reported as the means±SD. Class I (Cam-003), II (WapR-001), and III (WapR-016) anti-Psl mAbs were previously shown to bind three unique epitopes of Psl derived from P. aeruginosa.
The conjugations were performed as instructed by Pierce Endogen Inc. In short, the thiol derivative (2.5 eq. excess to available MI-groups on the protein), deprotected just prior to conjugation as described above, was dissolved in ddH2O (100 μL) and added to a solution of the maleimide activated protein (2 mg) in conjugation buffer sodium phosphate pH 7.2 containing EDTA and sodium azide (200 μL). The mixture was incubated at room temperature for 18 h and then purified by Millipore Centriplus centrifugal filter devices with a 10 kDa molecular cutoff. All centrifugations were performed at 4° C. for 25 min, 3000 rpm. The reaction mixture was centrifuged and the filter washed with sodium phosphate buffer pH 7.4 (3×200 μL). The conjugate was retrieved and taken up in sodium phosphate buffer pH 7.4, 0.15 M sodium chloride (1 mL). This gave glycoconjugates with a molar carbohydrate/BSA ratio of 7:1 for tetrasaccharide 3, 8:1 for pentasaccharide 2, 15:1 for hexasaccharide 4, and 5:1 for decasaccharide 1 as determined by quantitative monosaccharide analysis by HPAEC/PAD and the Lowry protein concentration assay.
ELISA plates (Nunc MaxiSorp) were coated overnight at 4° C. with 3-fold serial dilutions of oligosaccharide-BSA conjugates (relative to the concentration of the conjugated oligosaccharides) followed by washing with PBS supplemented with 0.1% Tween 20 (PBS-T) and blocking with PBS supplemented with 1% bovine serum albumin (PBS-B). The coated ELISA plates were incubated with anti-Psl antibodies (5 μg/mL in PBS-B) for 1 h at 4° C. Next the plates were washed with PBS-T and treated with HRP-conjugated anti-human secondary antibodies for 1 h followed by development and analysis as described (Digiandomenico, A., et al., J. Exp. Med. 2012, 209, 1273-1287).
After confirming the structural integrity of the synthetic Psl oligosaccharides, the ability of various anti-Psl mAbs to recognize the synthetic oligosaccharides was examined as follows. […]

Structure (SMILES)	ELISA reactivity with WapR-016
CC1O[C@@H](OC2C(O)[C@H](OC3C(O[C@H]4OC(CO)[C@@H](O)C(O)C4O)[C@H](OC4C(O)[C@H](OC5C(O)[C@H](OC6C(O)[C@H](OCN)OC(CO)[C@H]6O)OC(C)[C@@H]5O)OC(CO)[C@H]4O)OC(CO)[C@H]3O)OC(CO)[C@H]2O)C(O)C(O[C@@H]2OC(CO)[C@@H](O)C(O[C@@H]3OC(CO)[C@@H](O)C(O)C3O[C@H]3OC(CO)[C@@H](O)C(O)C3O)C2O)[C@H]1O (stereo partly shown) [compound 1]	weakly
CC1O[C@@H](OC2C(O)[C@H](OCN)OC(CO)[C@H]2O)C(O)C(O[C@@H]2OC(CO)[C@@H](O)C(O[C@@H]3OC(CO)[C@@H](O)C(O)C3O[C@H]3OC(CO)[C@@H](O)C(O)C3O)C2O)[C@H]1O (stereo partly shown) [compound 2]	did not bind
CC1O[C@@H](OC2C(O)[C@H](OCN)OC(CO)[C@H]2O)C(O)C(O[C@@H]2OC(CO)[C@@H](O)C(O[C@@H]3OC(CO)[C@@H](O)C(O)C3O)C2O)[C@H]1O (stereo partly shown) [compound 3]	did not bind
CC1O[C@@H](OC2C(O)[C@H](OCN)OC(CO)[C@H]2O)C(O)C(O[C@@H]2OC(CO)[C@@H](O)C(O[C@@H]3OC(CO)[C@@H](O)C(O[C@@H]4OC(CO)[C@@H](O)C(O)C4O)C3O[C@H]3OC(CO)[C@@H](O)C(O)C3O)C2O)[C@H]1O (stereo partly shown) [compound 4]	react potently
